For nine compounds, Ki results are on record in patent publication US7157472B2, “Neuropeptide Y Y5 receptor antagonists” (Schering Corporation, priority 2002, dated 2007).

As usually defined, the Ki is a dissociation constant, usually derived from enzyme kinetics or from competition with a known ligand. Low readings indicate tighter binding, high ones weaker binding.

This assay concerns the target T1, Human NPY Y5 receptors (Homo sapiens, UniProt Q15761).
T1 construct: expressed in transfected cells; host or cells: CHO cells (membrane protein)
T1 sequence (Q15761 1-445): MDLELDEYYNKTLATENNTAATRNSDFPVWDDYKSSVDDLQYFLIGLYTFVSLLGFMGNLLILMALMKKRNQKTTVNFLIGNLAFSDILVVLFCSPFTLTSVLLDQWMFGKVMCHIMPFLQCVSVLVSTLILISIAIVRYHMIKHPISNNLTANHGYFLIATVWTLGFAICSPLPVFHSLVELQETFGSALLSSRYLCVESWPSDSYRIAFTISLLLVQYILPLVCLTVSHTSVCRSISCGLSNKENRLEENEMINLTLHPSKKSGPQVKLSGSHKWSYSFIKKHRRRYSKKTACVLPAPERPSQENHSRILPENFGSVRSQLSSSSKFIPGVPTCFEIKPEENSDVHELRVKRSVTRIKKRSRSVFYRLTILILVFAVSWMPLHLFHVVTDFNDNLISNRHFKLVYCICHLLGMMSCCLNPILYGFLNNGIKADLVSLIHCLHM
Put plainly: NPY Receptor Binding Assay. The following applies: binding affinity at the human neuropeptide Y Y5 receptor subtype (hY5), expressed in CHO cells, 125I-peptide YY. On the procedure:
NPY Receptor Binding Assay
Human NPY Y5 receptors were expressed in CHO cells. Binding assays were performed in 50 mM HEPES, pH 7.2, 2.5 mM CaCl2, 1 mM MgCl2 and 0.1% BSA containing 5–10 μg of membrane protein and 0.1 nM […] in a total volume of 200 μl. Non-specific binding was determined in the presence of 1 μM NPY. The reaction mixtures were incubated for 90 minutes at room temperature then filtered through Millipore MAFC glass fiber filter plates which had been pre-soaked in 0.5% polyethleneimine. The filters were washed with phosphate-buffered saline, and radioactivity was measured in a Packard TopCount scintillation counter.
For the compound `CN(C(=O)Nc1cnn(-c2cc(F)cc(F)c2)c1)C1CCN(S(C)(=O)=O)CC1`, affinity was put at a Ki of 2.4 nM.

In turn, `CN(C(=O)Nc1cnn(-c2cc(F)cc(F)c2)c1)C1CCN(C(=O)OC(C)(C)C)CC1` showed a Ki of 1.8 nM.

In the case of `CN(C(=O)Nc1cnn(-c2cc(F)cc(F)c2)c1)C1CCNCC1`, the Ki was found to be 276 nM.

The compound `CC(=O)N1CCC(N(C)C(=O)Nc2cnn(-c3cc(F)cc(F)c3)c2)CC1` returned a Ki of 1.6 nM.

In the case of `CCC(=O)N1CCC(N(C)C(=O)Nc2cnn(-c3cc(F)cc(F)c3)c2)CC1`, the Ki came to 0.96 nM.

`CN(C(=O)Nc1cnn(-c2cc(F)cc(F)c2)c1)C1CCN(C(=O)C2CC2)CC1` yielded a Ki of 1.2 nM.

In the case of `CC(C)C(=O)N1CCC(N(C)C(=O)Nc2cnn(-c3cc(F)cc(F)c3)c2)CC1`, the inhibition constant (Ki) was determined as 0.7 nM.

`CCS(=O)(=O)N1CCC(N(C)C(=O)Nc2cnn(-c3cc(F)cc(F)c3)c2)CC1` gave a Ki of 0.89 nM.

Consider `CC(C)S(=O)(=O)N1CCC(N(C)C(=O)Nc2cnn(-c3cc(F)cc(F)c3)c2)CC1`, for which the inhibitory constant (Ki) is 1.7 nM.
